Two molecules from patent US20130336988A1, “METHODS FOR TREATING EARLY STAGE OR MILD NEUROLOGICAL DISORDERS” (NEW YORK UNIVERSITY, priority 2010, published 2013) can be followed below.

Assay [1] concerns E15 DIV3 mouse hippocampal neurons. Kind of assay: proNT-induced growth cone collapse in cultured hippocampal neurons (live imaging and immunofluorescence). To be noted: for growth cone collapse: p75NTR-positive cells, 20 min exposure, 10 ng/ml proNGF, 10 ng/ml proBDNF with K252a, 5 ng/ml NGF. It counts as cell-based. As for the experimental part:
To assay which pathways are involved in filopodial collapse, 5-10 ng/ml proNGF, 10 ng/ml proBDNF, 25-50 ng/ml BDNF (Peprotech) or 25-100 ng/ml NGF (Harlan) was added to E15 primary hippocampal neurons for 20 min before fixation. In some cases, cells were pretreated with 100 nM K-252a (Calbiochem) for 20 min, 100 nM Gö6976 (Calbiochem) for 1 hour, 5 μM EHT1864 (Sigma) for 30 min or 100 nM ITX3 (ChemBridge Corporation, cat. no. 6007262) for 45 min. To block SorCS2, cells were incubated with 20 μg/ml anti-SorCS2 or control IgG for 20 min on ice before proNGF addition at 37° C.
DIV3 hippocampal neurons were fixed in 4% paraformaldehyde/20% sucrose for 10 min. The fixative was quenched with 50 mM NH4Cl in PBS for 5 min and cells were permeabilized with 0.1% TritonX-100 in PBS for 2 min. Alternatively, cells were fixed with ice-cold methanol for 5 min. Coverslips were blocked with 10% normal donkey serum, 2% bovine serum albumin and 0.25% fish skin gelatin in Tris-buffered saline for 30 min, incubated with primary antibodies diluted in blocking solution for 30 min, washed three times with Tris-buffered saline/0.25% fish skin gelatin, incubated with secondary antibodies mixed with Hoechst in blocking buffer for additional 30 min, washed and mounted using Mowio1488. Cells were imaged using a LSM510 laser-scanning confocal microscope equipped with a 40× Plan Neofluor NA1.3 DIC oil-immersion objective (Carl Zeiss Microimaging). Images were processed using LSM510 software (Zeiss) and ImageJ (NIH).
Cells were plated on gridded glass bottom dishes (MatTek Corporation) and imaged at DIV3 in phenol red-free Neurobasal medium (Invitrogen) supplemented with 30 mM HEPES-NaOH, pH7.4 using an Olympus IX71 inverted microscope driven by IPLab software (BD Biosciences) and equipped with a 60× PlanApoN objective (NA 1.42), a Hamamatsu EM-CCD camera and a heated stage maintained at 37° C., or driven by softWoRX software (version 3.7.1, DeltaVision), and equipped with a CoolSnap HQ2 camera (Photometrics) and an environmental chamber maintained at 37° C. Images were taken every 15 seconds. After live imaging cells were fixed, counterstained for p75, located by grid number and examined for p75 expression. All movies were exported and processed using IPLab (BD Biosciences), softWoRX (version 3.7.1, DeltaVision) and ImageJ (NIH) software. Filopodia length and speed were both analyzed using ImageJ (NIH) software. For this, two times ten consecutive frames, spaced 5-10 min apart, were analyzed before and again after treatment. In the length analysis, a line was drawn along an individual filopodium and measured at every time point, and the measurements were averaged before and after treatment. For the speed analysis, the filopodial tip was tracked using the ImageJ Manual Tracking plugin. Up to four individual filopodia were analyzed per movie, and a minimum of four movies taken from separate experiments were analyzed per condition.
Primary hippocampal and cortical neurons were isolated from E15 C57BL/6 mouse embryos as previously described (PEREIRA, D. B. et al., Journal of Neuroscience 27:4859-4869 (2007)). Briefly, neurons were dissociated by incubation with 0.05% trypsin at 37° C. for 8 min followed by trituration with fire-polished glass Pasteur pipettes. Cells were plated on poly-D-lysine coated dishes and grown in Neurobasal medium containing B27, 0.5 mM glutamine (all Invitrogen) and 10 μM 5-fluorodeoxyuridine. Hippocampal neurons were transfected at DIV2 using Lipofectamine2000 (Invitrogen). For coverslips in a 24-well plate, 0.5 μg plasmid were mixed with 0.5 μl Lipofectamine2000, and for glass bottom dishes, 1.5 μg plasmid were mixed with 1.5 μl Lipofectamine2000. The complexes were added to the cells for 30-45 min, and then neurons were placed back into preconditioned media until analysis the following day. […]

In another assay the test system is Rac. Briefly: Rac activity assay (GST-Pak-CRIB pull-down of activated Rac). It is filed as cell-based, mouse. To be noted: mouse E15 DIV2 cortical neurons; 20 min; proBDNF with K252a. As for the experimental part: Rac activity assays were performed as described previously (NEUBRAND, V. E. et al., Journal of Cell Science 123:2111-2123 (2010)). […] Cells were lysed in lysis buffer supplemented with 10 mM MgCl, lysates were cleared by centrifugation at 9000 g for 1 min, and cleared lysates were incubated with GST or GST-Pak-CRIB beads for 30 min at 4° C. Beads were washed and isolated active Rac was analyzed by Western blot. As a control, extra lysates were incubated with 0.1 mM GDP or 0.1 mM GTPγS for 30 min at room temperature before incubation with GST-Pak-CRIB beads. Western blots were analyzed by densitometry using ImageJ software, and isolated active Rac was normalized to the input.
GST and GST-Pak-CRIB proteins were expressed in E. coli BL21DE3 cells at 25° C. for 3 hours. Bacteria were disrupted by incubation with PBS supplemented with lysozyme on ice for 30 min and subsequent addition of 1 mM MgCl2, 0.1% TritonX-100 and 0.1 mg/ml DNAse for an additional 30 min. Bacterial lysates were cleared by centrifugation for 5 min at 3000 g and cleared lysates were incubated with glutathione sepharose. Beads were washed and the purity of the recombinant proteins was analyzed by Coomassie blue staining. 20 μg of sepharose coupled purified protein was used per reaction.

Assay [2] concerns Cortical neurons expressing p75^NTR. Briefly: Growth cone collapse in cortical neurons. It counts as cell-based, mouse. To be noted: cortical neurons expressing p75NTR (not shown). As for the experimental part:
Primary hippocampal and cortical neurons were isolated from E15 C57BL/6 mouse embryos as previously described (PEREIRA, D. B. et al., Journal of Neuroscience 27:4859-4869 (2007)). Briefly, neurons were dissociated by incubation with 0.05% trypsin at 37° C. for 8 min followed by trituration with fire-polished glass Pasteur pipettes. Cells were plated on poly-D-lysine coated dishes and grown in Neurobasal medium containing B27, 0.5 mM glutamine (all Invitrogen) and 10 μM 5-fluorodeoxyuridine. Hippocampal neurons were transfected at DIV2 using Lipofectamine2000 (Invitrogen). For coverslips in a 24-well plate, 0.5 μg plasmid were mixed with 0.5 μl Lipofectamine2000, and for glass bottom dishes, 1.5 μg plasmid were mixed with 1.5 μl Lipofectamine2000. The complexes were added to the cells for 30-45 min, and then neurons were placed back into preconditioned media until analysis the following day. HT1080 cells were grown in DMEM/10% fetal bovine serum (both Invitrogen) and transfected using the AMAXA nucleofector (Lonza) according to manufacturer's instructions. 293FT cells were grown in DMEM/10% fetal bovine serum and transfected with Lipofectamine2000 according to manufacturer's instructions.

Take “proNGF: proneurotrophin precursor of nerve growth factor, produced in Sf9 cells and purified”: the “growth cone collapse in neurons from p75NTR-/- mice” value in assay [1] (live imaging of LifeAct-RFP transfected neurons from p75 null mice (not shown)) was “growth cone collapse was never observed”. In assay [1] (p75NTR-positive E15 DIV3 hippocampal neurons, immunostaining), the “localisation of endogenous Trio” value was “redistribution of Trio along the neuritis”. In addition, in assay [1], the growth cone collapse entry was “comparable in inducing growth cone collapse”. The “Rac activity after proNT exposure” value in the assay with Rac was “significant decrease in Rac activity”. In addition, the “growth cone collapse in cortical neurons” value in assay [2] is “displayed growth cone collapse”.

B1: proBDNF: murine proBDNF collected from supernatants of transfected 293 cells (protein)
chain: APMKEVNVHGQGNLAYPGVRTHGTLESVNGPRAGSRGLTTTSLADTFEHVIEELLDEDQKVRPNEENHKDADLYTSRVMLSSQVPLEPPLLFLLEEYKNYLDAANMSMRVRRHSDPARRGELSVCDSISEWVTAADKKTAVDMSGGTVTVLEKVPVSKGQLKQYFYETKCNPMGYTKEGCRGIDKRHWNSQCRTTQSYVRALTMDSKKRIGWRFIRIDTSCVCTLTIKRGR
Take B1: the growth cone collapse result in assay [1] is given as “comparable in inducing growth cone collapse”. Also, in the assay with Rac, the “Rac activity after proNT exposure” value is given as “significant decrease in Rac activity”.
